Measurements published in the supplement of paper PMC10331698.
± gives the standard deviation of the averaged measurements.

Key:
Experiment in all cases: level (log10 ratio to DMSO vehicle control); higher = higher biomarker level / cell amount than vehicle control
Details in all cases: in DMSO
[1] = compound: O=C(O)C(F)(F)C(F)(F)C(F)(F)C(F)(F)C(F)(F)C(F)(F)C(F)(F)C(F)(F)C(F)(F)C(F)(F)C(F)(F)C(F)(F)C(F)(F)F [Perfluorotetradecanoic acid]
Description: (§1)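 BioMAP Diversity Plus panel of 12 human primary cell co-culture systems (3C, 4H, LPS, SAg, BT, BF4T, BE3C, CASM3C, HDF3CGF, KF3CT, MyoF, Mphg). Compounds were added 1 h before stimulation and left for 24 h (MyoF 48 h; BT 72 h for soluble read-outs or 6 d for IgG). Biomarkers were read by ELISA, cytotoxicity by SRB, PBMC viability and proliferation by Alamar Blue. Each well value was divided by the mean of 8 DMSO control wells on the same plate and log10 transformed; duplicate blinded samples were tested at 4 concentrations.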

[2] = compound: O=S(=O)(O)C(F)(F)C(F)(F)C(F)(F)C(F)(F)C(F)(F)C(F)(F)C(F)(F)C(F)(F)F [Potassium perfluorooctanesulfonate]
Description: as §1

[3] = compound: O=C(O)C(F)(F)OC(F)(F)C(F)(F)OC(F)(F)C(F)(F)C(F)(F)C(F)(F)F [Perfluoro-3,6-dioxadecanoic acid]
Description: as §1

[4] = compound: CCCCCCCCC(F)(F)C(F)(F)C(F)(F)C(F)(F)C(F)(F)C(F)(F)F [1-(Perfluorohexyl)octane]
Description: as §1

[5] = compound: O=C(O)C(F)(F)C(F)(F)C(F)(F)C(=O)O [Hexafluoroglutaric acid]
Description: as §1

[6] = compound: O=C(O)C(F)(F)C(F)(F)C(F)(F)C(F)(F)C(F)(F)C(F)(F)C(F)(F)C(F)(F)C(F)(F)C(F)(F)C(F)(F)C(F)(F)F [Perfluorotridecanoic acid]
Description: as §1

[7] = compound: O=C(O)C(F)(F)C(F)(F)C(F)(F)C(F)(F)C(F)(F)C(F)(F)C(F)(F)C(F)(F)Cl [9-Chloro-perfluorononanoic acid]
Description: as §1

Test System	level (log10) ([1]; 6700 nM)	level (log10) ([1]; 20000 nM)	level (log10) ([2]; 6700 nM)	level (log10) ([2]; 20000 nM)	level (log10) ([2]; 60000 nM)	level (log10) ([3]; 6700 nM)	level (log10) ([3]; 20000 nM)	level (log10) ([3]; 60000 nM)	level (log10) ([4]; 6700 nM)	level (log10) ([4]; 20000 nM)	level (log10) ([5]; 6700 nM)	level (log10) ([5]; 20000 nM)	level (log10) ([5]; 60000 nM)	level (log10) ([6]; 1500 nM)	level (log10) ([6]; 4400 nM)	level (log10) ([6]; 13000 nM)	level (log10) ([6]; 40000 nM)	level (log10) ([7]; 6700 nM)	level (log10) ([7]; 20000 nM)
HDF3CGF:CD54/ICAM-1	-0.0015 ± 0.029	-0.023 ± 0.033	-0.0015 ± 0.0064	-0.002 ± 0.014	-0.0525 ± 0.012	-0.0025 ± 0.021	-0.0125 ± 0.026	-0.038 ± 0.04	0.0025 ± 0.005	-0.0055 ± 0.037	0.001 ± 0.018	0.0035 ± 0.013	0.004 ± 0.016	-0.016 ± 0.0071	-0.0075 ± 0.015	-0.0135 ± 0.064	-0.0275 ± 0.12	-0.077 ± 0.017	-0.112 ± 0.014
MyoF:alpha-SM Actin	-0.008	-0.032 ± 0.0085	-0.0215 ± 0.079	-0.027 ± 0.075	-0.0175 ± 0.066	-0.0155 ± 0.039	-0.0235 ± 0.018	-0.05 ± 0.014	-0.0125 ± 0.032	-0.0095 ± 0.0078	-0.008 ± 0.044	-0.0065 ± 0.029	0.033 ± 0.017	0.038 ± 0.067	0.041 ± 0.11	0.023 ± 0.086	0.0055 ± 0.09	-0.009 ± 0.028	-0.022 ± 0.013
HDF3CGF:Proliferation 72hr	0.0655 ± 0.046	-0.063 ± 0.054	0.13 ± 0.079	0.155 ± 0.09	-0.732 ± 0.039	0.0245 ± 0.00071	0.116 ± 0.011	-0.0545 ± 0.036	0.0085 ± 0.077	0.0325 ± 0.005	-0.011 ± 0.059	-0.013 ± 0.028	-0.008 ± 0.05	0.0615 ± 0.07	-0.603 ± 0.43	-0.288 ± 0.069	-0.233 ± 0.091	0.101 ± 0.022	-0.081 ± 0.054
CASM3C:CD142/Tissue Factor	-0.005 ± 0.038	-0.002 ± 0.041	-0.016 ± 0.041	-0.014 ± 0.023	-0.0265 ± 0.029	0.001	-0.008 ± 0.0042	0.0105 ± 0.052	-0.0265 ± 0.028	-0.0295 ± 0.005	0.003 ± 0.033	0.0015 ± 0.005	0.0185 ± 0.021	-0.004 ± 0.064	0.002 ± 0.024	-0.0025 ± 0.018	-0.012 ± 0.034	-0.017 ± 0.011	0.0055 ± 0.0064
MyoF:CD106/VCAM-1	-0.0045 ± 0.019	0.013 ± 0.025	0.002 ± 0.027	0.0045 ± 0.029	0.0015 ± 0.019	-0.0055 ± 0.00071	-0.0285 ± 0.026	-0.045 ± 0.021	-0.0085 ± 0.005	-0.027 ± 0.033	-0.0145 ± 0.021	-0.023 ± 0.0099	-0.006 ± 0.0014	-0.0105 ± 0.0078	0.01 ± 0.0071	-0.003 ± 0.0085	0.0035 ± 0.033	-0.008 ± 0.025	-0.101 ± 0.023
MyoF:bFGF	0.0075 ± 0.00071	0.0315 ± 0.018	-0.0105 ± 0.025	-0.0195 ± 0.023	-0.019 ± 0.028	0.013 ± 0.02	0.003 ± 0.0057	0.02 ± 0.011	-0.0025 ± 0.012	0.0045 ± 0.005	0.01 ± 0.014	0.0105 ± 0.013	0.017 ± 0.0014	0.005 ± 0.04	0.017 ± 0.028	0.0045 ± 0.04	0.015 ± 0.0085	-0.003 ± 0.023	0.0085 ± 0.011
lMphg:SRB	-0.0035 ± 0.0035	-0.0105 ± 0.0078	-0.0065 ± 0.015	-0.01 ± 0.0071	-0.015 ± 0.011	-0.0135 ± 0.011	-0.01 ± 0.0071	-0.0705 ± 0.013	0.002 ± 0.0042	0 ± 0.0085	0.0035 ± 0.00071	0.003 ± 0.0085	-0.0045 ± 0.0035	-0.009 ± 0.0085	-0.0135 ± 0.0035	0.002 ± 0.0057	-0.0085 ± 0.00071	0.0105 ± 0.0092	0.013 ± 0.0042
lMphg:CXCL8/IL-8	0.0035 ± 0.032	0.0215 ± 0.049	-0.0435 ± 0.005	0.0135 ± 0.03	0.094 ± 0.0028	0.01 ± 0.0057	0.0595 ± 0.025	0.0695 ± 0.021	-0.0215 ± 0.0078	0.022 ± 0.02	0.014 ± 0.0042	0.044 ± 0.072	-0.0185 ± 0.0021	-0.0575 ± 0.0021	-0.0665 ± 0.012	-0.0245 ± 0.00071	-0.0175 ± 0.021	-0.0145 ± 0.0078	0.0115 ± 0.025
HDF3CGF:TIMP-2	0.091 ± 0.0085	0.036 ± 0.05	-0.055 ± 0.03	-0.108 ± 0.019	-0.137 ± 0.038	-0.0245 ± 0.028	-0.035 ± 0.0085	-0.0625 ± 0.0078	-0.005 ± 0.067	-0.0035 ± 0.052	-0.041 ± 0.0014	0.01 ± 0.0028	-0.0345 ± 0.0021	0.0455 ± 0.043	0.0415 ± 0.084	0.102 ± 0.019	0.0095 ± 0.013	-0.0645 ± 0.04	-0.146 ± 0.029
CASM3C:PAI-I	0.007 ± 0.0028	0.013 ± 0.0014	0.009	0.004	0.0165 ± 0.0064	0.001 ± 0.0042	0.003 ± 0.0071	0.011 ± 0.011	-0.011 ± 0.0014	0.0035 ± 0.0078	-0.0015 ± 0.015	-0.0005 ± 0.0064	0.0075 ± 0.0064	0.005 ± 0.0085	0 ± 0.011	0.0135 ± 0.013	0.01 ± 0.0057	-0.002 ± 0.0071	0.0065 ± 0.0078
HDF3CGF:CXCL9/MIG	0.0075 ± 0.025	-0.001 ± 0.0042	-0.024 ± 0.024	-0.017 ± 0.02	-0.116 ± 0.04	-0.0175 ± 0.0064	-0.046 ± 0.092	-0.126	0.0055 ± 0.00071	0.025 ± 0.014	-0.013 ± 0.014	-0.025 ± 0.011	-0.005 ± 0.013	-0.04 ± 0.03	-0.136 ± 0.12	-0.119 ± 0.043	-0.138 ± 0.073	-0.047 ± 0.02	-0.142 ± 0.04
MyoF:Collagen IV	-0.002 ± 0.0071	0.023 ± 0.016	0.024 ± 0.017	0.0125 ± 0.022	0.0175 ± 0.05	0.0055 ± 0.013	0.0345 ± 0.019	0.235 ± 0.011	0.0135 ± 0.0064	0.0505 ± 0.069	-0.004 ± 0.013	0.002 ± 0.021	-0.0055 ± 0.0064	-0.0095 ± 0.043	0.002 ± 0.018	0.004 ± 0.04	0.064 ± 0.013	0.024 ± 0.0071	0.264 ± 0.031
CASM3C:CXCL9/MIG	-0.0375 ± 0.042	0.0295 ± 0.057	0.015 ± 0.0071	0.012 ± 0.016	0.09 ± 0.027	-0.006 ± 0.0085	-0.0045 ± 0.015	0.0155 ± 0.06	-0.0115 ± 0.0021	0.0255 ± 0.005	-0.0195 ± 0.019	-0.02 ± 0.0085	0.022 ± 0.033	0.013 ± 0.044	-0.006 ± 0.017	-0.054 ± 0.018	-0.0405 ± 0.054	-0.0355 ± 0.0035	-0.0235 ± 0.013
HDF3CGF:SRB	0.027 ± 0.014	0.0205 ± 0.069	-0.033 ± 0.052	-0.005 ± 0.052	-0.0695 ± 0.053	0.0265 ± 0.033	0.0885 ± 0.022	0.0485 ± 0.079	0.0105 ± 0.11	0.022 ± 0.057	-0.03 ± 0.083	-0.0095 ± 0.097	0.0245 ± 0.12	-0.0195 ± 0.035	-0.007 ± 0.021	0.063 ± 0.054	0.067 ± 0.075	0.081 ± 0.016	0.065 ± 0.033
